Patent US20040049072A1, “RXR modulators with improved pharmacologic profile” (priority 1999, published 2004)
“Also recorded” adds a separate entry of the source.

Legend:
RXRα homodimer (RXR:RXR) = target: T1, RXRα homodimer (RXR:RXR) (Homo sapiens, UniProt P19793); experiment: RXR homodimer co-transfection assay in CV-1 cells; format: cell-based; conditions: for activity on the RXR:RXR homodimer: cotransfection assay; for RXR:RXR CV-1 (%) Antag.: maximal repression (100%) in presence of 32 nM LGD1069; for RXR:RXR CV-1 (%) Ag.: maximal response relative to ATRA; for EC50 / IC50: not calculated if efficacy <10%; for EC50: read-out: RXRα Homodimer Cotransfection Assay Agonist EC50; for IC50: in presence of LGD1069, read-out: RXRα Homodimer Cotransfection Assay Antagonist IC50
T1 sequence (P19793 1-462): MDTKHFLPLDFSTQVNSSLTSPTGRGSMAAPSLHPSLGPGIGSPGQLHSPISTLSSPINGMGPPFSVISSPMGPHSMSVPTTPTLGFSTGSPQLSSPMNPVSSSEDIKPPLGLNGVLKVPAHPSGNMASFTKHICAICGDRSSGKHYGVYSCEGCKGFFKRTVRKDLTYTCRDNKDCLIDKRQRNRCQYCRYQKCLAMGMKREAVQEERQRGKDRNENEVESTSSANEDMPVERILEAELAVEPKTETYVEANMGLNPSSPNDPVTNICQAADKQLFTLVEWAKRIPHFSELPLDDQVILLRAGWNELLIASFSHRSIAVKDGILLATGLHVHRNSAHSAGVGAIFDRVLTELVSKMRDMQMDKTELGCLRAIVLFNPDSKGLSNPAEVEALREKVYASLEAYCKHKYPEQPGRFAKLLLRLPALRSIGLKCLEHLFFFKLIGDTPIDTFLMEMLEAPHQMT
Description: In the co-transfection assay, cloned cDNA for one or more IRs (e.g., human RARα, RXRα, or PPARγ), alone or in combination (i.e. for heterodimer assays) under the control of a constitutive promoter (e.g., the SV 40, RSV or CMV promoter) is introduced by transfection (a procedure to introduce exogenous genes into cells) into a background cell substantially devoid of endogenous IRs. These introduced gene(s) direct the recipient cells to make the IR protein(s) of interest. A further gene is also introduced (co-transfected) into the same cells in conjunction with the IR gene(s). This further gene, comprising the cDNA for a reporter protein, such as firefly luciferase (LUC), controlled by an appropriate hormone responsive promoter containing a hormone response element (HRE). This reporter plasmid functions as a reporter for the transcriptional-modulating activity of the target IR(s). Thus, the reporter acts as a surrogate for the products (mRNA then protein) normally expressed by a gene under control of the target receptor(s) and their native hormone(s).
Exposing the transfected cells to an agonist ligand compound increases reporter activity in the transfected cells. This activity can be conveniently measured, e.g., by increasing luciferase production and enzymatic activity, which reflects compound-dependent, IR-mediated increases in reporter transcription. […] Increasing concentrations of an antagonist will decrease the reporter signal (e.g., luciferase production). The co-transfection assay is therefore useful to detect both agonists and antagonists of specific IRs. Furthermore, it determines not only whether a compound interacts with a particular IR, but whether this interaction mimics (agonizes) or blocks (antagonizes) the effects of native or synthetic regulatory molecules on target gene expression, as well as the specificity and strength of this interaction.
The receptor expression plasmid was cotransfected along with a reporter plasmid at 50 ng/well, the internal control plasmid pRS-β-Gal at 50 ng/well and filler DNA, pGEM, at 90 ng/well.
Six hours after transfection, media was removed and the cells were washed with phosphate-buffered saline (PBS). Media containing compounds of the present invention in concentrations ranging from 10^−10 to 10^−5 M were added to the cells. […] Retinoids were dissolved in dimethylsulfoxide for use in the transcriptional activation assays. Two to three replicates were used for each sample. Transfections and subsequent procedures were performed on a Biomek 1000 automated workstation.
After 40 hours, the cells were washed with PBS, lysed with a detergent-based buffer and assayed for LUC and β-Gal activities using a luminometer or spectrophotometer, respectively. For each replicate, the normalized response (NR) was calculated as: […]
The mean and standard error of the mean (SEM) of the NR were calculated. Data were plotted as the response of the compound compared to the reference compounds over the range of the dose-response curve. […] Antagonist activity was determined by testing the amount of LUC expression in the presence of the RXR agonists described above at the EC50 concentration for such known compounds. […] In addition, the efficacy of antagonists was determined as a function (%) of maximal inhibition.

[1] = system: mice transgenic for the human apolipoprotein A-I gene; experiment: transgenic mice carrying the human apo A-I gene (HDL cholesterol, triglycerides); format: in vivo, mouse
Description: Mice transgenic for the human apolipoprotein A-I gene (obtained from Jackson Laboratory) were used to evaluate PPARalpha mediated effects on HDL cholesterol. The mice were handled as described above for db/db mice, except that they were fed Purina 5001.

[2] = Table 3 c4, in presence of 3.2×10^−8 M LGD1069

Row | SMILES | RXRα Homodimer Cotransfection Assay Agonist Efficacy (%) (RXRα homodimer (RXR:RXR); Table 3 c2, mean of n > 3) | RXRα Homodimer Cotransfection Assay Agonist Efficacy (%) (RXRα homodimer (RXR:RXR); [2]) | activity on the RXR:RXR homodimer (RXRα homodimer (RXR:RXR)) | RXR:RXR CV-1 (%) Antag. (RXRα homodimer (RXR:RXR)) [%] | RXR:RXR CV-1 (%) Ag. (RXRα homodimer (RXR:RXR)) [%] | EC50 (RXRα homodimer (RXR:RXR)) [nM] | triglycerides [1] | IC50 (RXRα homodimer (RXR:RXR)) [nM]
1 | COc1c(/C(C)=C/C=C/C(C)=C/C(=O)O)cc(C(C)(C)C)cc1C(C)(C)C [Compound L1] | 62 | 7 | full RXR homodimer agonists; also recorded: agonist activity similar in efficacy and potency to the known RXR agonist, LG100268 | 7 | 62 | 33 | substantially raise triglycerides | –
2 | CCOc1c(/C(C)=C/C=C/C(C)=C/C(=O)O)cc(C(C)(C)C)cc1C(C)(C)C [Compound L2] | 11 | 62 | partial agonist | 62 | 11 | 14 | – | 9
3 | CCCOc1c(/C(C)=C/C=C/C(C)=C/C(=O)O)cc(C(C)(C)C)cc1C(C)(C)C [Compound L3] | 2 | 90 | highly efficacious and potent antagonist activity with little or no agonist activity | 90 | 2 | – | – | 5
4 | CCCCOc1c(/C(C)=C/C=C/C(C)=C/C(=O)O)cc(C(C)(C)C)cc1C(C)(C)C [Compound L4] | 1 | 92 | highly efficacious and potent antagonist activity with little or no agonist activity | 92 | 1 | – | – | 9
5 | CCCCCCCOc1c(/C(C)=C/C=C/C(C)=C/C(=O)O)cc(C(C)(C)C)cc1C(C)(C)C [Compound L5] | 0 | 94 | full antagonists; also recorded: highly efficacious and potent antagonist activity with little or no agonist activity | 94 | 0 | – | – | 10
